Data from patent US20250296938A1, “Compounds that Interact with the Ras Superfamily for the Treatment of Cancers, Inflammatory Diseases, Rasopathies, and Fibrotic Disease” (SHY Therapeutics, LLC, priority 2018, published 2025).

What was measured:
[1] = system: AKT phosphorylation; experiment: Western AKT cell-based phosphorylation assay, PANC-1; conditions: Homo sapiens, PANC-1 (Table 4C)
Experimental: Human tumor-derived pancreatic cancer cell line Panc-1 was purchased from American Type Culture Collection and grown in complete DMEM-High Glucose supplemented with penicillin (100 U/mL), streptomycin (100 μg/mL), and 10% heat-inactivated FBS at 37° C. in a humidified incubator with 5% CO2.
(§1) Method: Cells were plated at 350000 cells/well density in a 12-well plate, allowed 3 hours to adhere to the plate, then starved in the appropriate medium in the presence of 0.5% FBS overnight. The small molecules to be tested were added to the cells in the final concentration of 10 μM in the presence of 0.3% DMSO for 6 hours incubation at 37° C. Next, cells were stimulated with 1.5 ng/ml EGF for 15 minutes then cells were lysed with lysis buffer containing 1% Triton X-100, EDTA, and Halt™ Protease & Phosphatase Inhibitor Cocktail (Thermo Scientific). Protein concentration was assessed by BCA protein assay (Thermo Scientific). Phosphorylation level of Akt was determined by western blot.
(§2) Western blot protocol: Equal amounts of protein (15-50 μg) were separated by SDS-PAGE and transferred to nitrocellulose membranes (Invitrogen by Thermo Fisher Scientific). The membrane was stained with Ponceau S Stain (Boston BioProducts) to verify uniform protein loading. Membranes were blocked with 10% milk and phosphorylation levels of Akt were assessed by incubating overnight at 4° C. with anti-phospho-Akt (Ser473) antibody (Cell Signaling) followed by HRP-conjugated secondary antibody (Jackson Immunoresearch, West Grove, PA). Bands were incubated in Amersham ECL Prime Western Blotting Detection Reagent (GE Healthcare) and visualized using the ChemiDoc MP imaging system (Bio-Rad).

[2] = system: MAPK phosphorylation; experiment: MAPK cell-based phosphorylation assay (ELISA or Western), PANC-1; conditions: Homo sapiens; 10 μM, PANC-1 (Table 4C)
Experimental: Cell lines: Tumor-derived pancreatic cancer cell line PANC-1 was purchased from ATCC and were and grown in DMEM-High Glucose supplemented with penicillin (100 U/mL), streptomycin (100 μg/mL), and 10% heat-inactivated FBS at 37° C. in a humidified incubator with 5% CO2.
Method: Cells were plated at 7500 cells/well density in a 96-well plate, allowed 3 hours to adhere to the plate, then starved in DMEM plus 0.5% FBS overnight. The small molecules to be tested were added to the cells in the final concentration of 10 μM in the presence of 0.3% DMSO for 6 hours incubation at 37° C. For IC50 value determination, serial dilutions of compounds were added to cells under the same conditions. Next, cells were stimulated with 1.5 ng/mL EGF for 15 minutes followed by cell fixation with 4% formaldehyde in PBS at room temperature for 20 minutes. Cell-direct ELISA determined phosphorylation level of MAPK.
Cell-direct ELISA: For each well, cells were permeabilized with 0.1% PBS-Triton X-100, quenched with 0.06% H2O2 in 0.1% PBS-Triton X-100, and probed with anti-phospho-MAPK antibodies (R&D Systems) followed by HRP-conjugated secondary antibody (Jackson Immunoresearch, West Grove, PA). Next, a 50 μM solution of the fluorescent substrate AmpliFlu Red (Sigma) was added and incubated at RT for 20 minutes. At the end of the incubation time, phosphorylation level of MAPK was determined by measuring fluorescence at 595 nm using SpectraMax M3 plate reader (Molecular Devices).
Cell lines: Human NSCLC cells NCI-H1975 and NCI-H1299, and tumor-derived pancreatic cancer cell lines Panc-1, MIA-PaCa-2, and BxPC3, were all purchased from American Type Culture Collection and grown in complete RPMI medium (BxPC3, NCI-H1975 and NCI-H1299) or DMEM-High Glucose (Panc1 and MIA-PaCa-2), supplemented with penicillin (100 U/mL), streptomycin (100 μg/mL), and 10% heat-inactivated FBS at 37° C. in a humidified incubator with 5% CO2.
as §1, with “C. For IC50 value determination, serial dilutions of compounds were added to cells under the same conditions.” for “C.”, “MAPK” for “Akt”
as §2, with “MAPK” for “Akt”, “anti-phospho-p44/42 (Thr202/Tyr204)” for “anti-phospho-Akt (Ser473)”

Compound | inhibition at 10 µM [1] [%] | inhibition at 10 µM [2] [%]
COc1cccc(-c2sc3nc(-c4nccn4C)nc(N[C@@H]4CC[C@H](OC)C4)c3c2-c2ccccc2)c1F [drawing 484] | 76 to 100 | 76 to 100
COC1CCC(Nc2nc(-c3nccn3C)nc3sc(-c4cccc(O)c4F)c(-c4ccccc4)c23)C1 (stereo not shown) [drawing 485] | 0 | 76 to 100
COc1c(F)cccc1-c1sc2nc(-c3nccn3C)nc(NC3CCC(OC)C3)c2c1-c1ccccc1 (stereo not shown) [drawing 486] | 76 to 100 | 76 to 100
COc1c(F)cccc1-c1sc2nc(-c3nccn3C)nc(N[C@@H]3CC[C@H](OC)C3)c2c1-c1ccccc1 [drawing 487] | 76 to 100 | 76 to 100
COC1CCC(Nc2nc(-c3nccn3C)nc3sc(-c4cccc5[nH]ncc45)c(-c4ccccc4)c23)C1 (stereo not shown) [drawing 488] | 76 to 100 | 76 to 100
CO[C@H]1CC[C@@H](Nc2nc(-c3nccn3C)nc3sc(-c4cccc5[nH]ncc45)c(-c4ccccc4)c23)C1 [drawing 489] | 0 | 76 to 100
COc1cccc(-c2sc3nc(-c4nccn4C)nc(N4CCC(OC)C4)c3c2-c2ccccc2)c1F (stereo not shown) [drawing 490] | 76 to 100 | 76 to 100
COc1cccc(-c2sc3nc(-c4nccn4C)nc(N[C@H]4C[C@@H](OC)C4)c3c2-c2ccccc2)c1F [drawing 491] | 76 to 100 | 76 to 100
CO[C@H]1C[C@@H](Nc2nc(-c3nccn3C)nc3sc(-c4cnn(C)c4)c(-c4ccccc4)c23)C1 [drawing 492] | 26 to 50 | 76 to 100
COc1cccc(-c2sc3nc(-c4nccn4C)nc(NC4CCC(OC)C4)c3c2C)c1F (stereo not shown) [drawing 493] | 0 | 76 to 100
COc1cccc(-c2sc3nc(-c4nccn4C)nc(N[C@@H]4CC[C@H](OC)C4)c3c2C)c1F [drawing 494] | 0 | 76 to 100
COC1CCC(Nc2nc(-c3nccn3C)nc3sc(-c4cccc5[nH]ncc45)c(C)c23)C1 (stereo not shown) [drawing 495] | 76 to 100 | 76 to 100
COCCn1ccnc1-c1nc(O)c2scc(-c3ccc(OCC(C)C)nc3)c2n1 [drawing 498] | 0 | 76 to 100
CC(C)COc1ccc(-c2csc3c(O)nc(-c4nccn4Cc4ccccn4)nc23)cn1 [drawing 499] | 0 | 76 to 100
COc1cccc(Cn2ccnc2-c2nc(O)c3scc(-c4ccc(OCC(C)C)nc4)c3n2)c1 [drawing 500] | 0 | 76 to 100
CO[C@H]1CC[C@@H](Nc2nc(-c3nccn3C)nc(C(=O)N3CCc4c(O)cccc4C3)c2C)C1 [drawing 501] | 1 to 25 | 26 to 50
CO[C@H]1C[C@@H](Nc2nc(-c3ccccn3)nc3sccc23)C1 [drawing 502] | 0 | 1 to 25
CO[C@H]1C[C@@H](Nc2nc(-c3nccn3C)nc3sccc23)C1 [drawing 503] | 0 | 1 to 25
Cn1ccc(-c2sc3nc(-c4nccn4C)nc(O)c3c2-c2ccccc2)n1 [drawing 504] | 0 | 0

Compound | inhibition at 10 µM [1] [%] | inhibition at 10 µM [2] [%]
CO[C@H]1C[C@@H](Nc2nc(-c3nccn3C)nc3sc(-c4ccn(C)n4)c(-c4ccccc4)c23)C1 [drawing 505] | 76 to 100 | 76 to 100
CO[C@H]1C[C@H](Nc2nc(-c3nccn3C)nc3sc(-c4ccn(C)n4)c(-c4ccccc4)c23)C1 [drawing 506] | 76 to 100 | 76 to 100
CN(C)CCOCCNc1nc(-c2nccn2C)nc2sc(-c3ccn(C)n3)c(-c3ccccc3)c12 [drawing 507] | 0 | 0
Cn1ccc(-c2sc3nc(-c4nccn4C)nc(N[C@H]4C[C@@H](O)C4)c3c2-c2ccccc2)n1 [drawing 508] | 0 | 1 to 25
CO[C@H]1C[C@@H](Nc2nc(-c3ncc[nH]3)nc3sc(-c4ccn(C)n4)c(-c4ccccc4)c23)C1 [drawing 510] | 0 | 0
CO[C@H]1CC[C@@H](Nc2nc(-c3ncc[nH]3)nc3sc(-c4ccn(C)n4)c(-c4ccccc4)c23)C1 [drawing 511] | 76 to 100 | 76 to 100
CO[C@H]1CC[C@@H](Nc2nc(-c3nccn3C)nc3sc(-c4ccn(C(C)C)n4)c(-c4ccccc4)c23)C1 [drawing 512] | 76 to 100 | 76 to 100
COc1nc(-c2ccccn2)nc2c(-c3ccccn3)csc12 [drawing 513] | 0 | 0
CO[C@H]1C[C@@H](Nc2nc(-c3nccn3C)nc3sc(-c4ccn(C)n4)c(C)c23)C1 [drawing 514] | 0 | 76 to 100
CO[C@H]1CC[C@@H](Nc2nc(-c3nccn3C)nc3sc(-c4ccn(C)n4)c(C)c23)C1 [drawing 515] | 0 | 0
Cc1c(-c2ccn(C)n2)sc2nc(-c3nccn3C)nc(NCCCS(C)(=O)=O)c12 [drawing 516] | 0 | 0
Cc1c(-c2ccn(C)n2)sc2nc(-c3nccn3C)nc(NCCCC(=O)N(C)C)c12 [drawing 517] | 0 | 0
Cc1c(-c2ccn(C)n2)sc2nc(-c3nccn3C)nc(NCCOC(=O)N(C)C)c12 [drawing 518] | 0 | 0
CO[C@H]1CC[C@@H](Nc2nc(-c3nccn3C)nc3sc(-c4ccn(C(C)C)n4)c(C)c23)C1 [drawing 519] | 0 | 76 to 100
CO[C@H]1C[C@@H](Nc2nc(-c3nccn3C)nc3sc(C(=O)NC(C)C)c(-c4ccccc4)c23)C1 [drawing 520] | 0 | 0
COCCNC(=O)c1sc2nc(-c3nccn3C)nc(N[C@H]3C[C@@H](OC)C3)c2c1-c1ccccc1 [drawing 521] | 0 | 0
CO[C@H]1C[C@@H](Nc2nc(-c3nccn3C)nc3sc(C(=O)N4CCOCC4)c(-c4ccccc4)c23)C1 [drawing 522] | 0 | 0
COC1CCN(C(=O)c2sc3nc(-c4nccn4C)nc(N[C@H]4C[C@@H](OC)C4)c3c2-c2ccccc2)C1 (stereo partly shown) [drawing 523] | 0 | 0
CO[C@H]1CC[C@@H](Nc2nc(-c3nccn3C)nc3sc(C(=O)NC(C)C)c(-c4ccccc4)c23)C1 [drawing 524] | 0 | 0
